The values below are quoted from earlier work in patent US11058672B2, “Pharmaceutical compositions and methods for producing low impurity concentrations of the same” (Chiesi Farmaceutici S.p.A., priority 2008, dated 2021).

The structures appear in SMILES notation.

On to `CCCC(=O)OCOC(=O)C1=C(C)NC(C)=C(C(=O)OC)C1c1cccc(Cl)c1Cl` (stereo not shown) [Clevidipine, butyroxymethyl methyl 4-(2′,3′-dichlorophenyl)-1,4-dihydro-2,6-dimethyl-3,5-pyridinedicarboxylate], for which the solubility in water entry is on record as “practically insoluble”.
